Experimental findings from patent publication US5466689A, “Morpholine derivatives and their use” (Takeda Chemical Industries, Ltd., priority 1993, dated 1995) are described below.

Data set [1] deals with Substance-P. Kind of data set: Action of Substance-P for inhibiting biting response by its administration at subarachnoid space. The format is in vivo, Jcl:ICR mice. The conditions noted are these: mice; dosage 10 μg/mouse; SP 10 ng/5 μl/mouse at subarachnoid space; bitings counted for one minute. As for the experimental part: Action of Substance-P for inhibiting biting response by its administration at subarachnoid space
Five-week old male Jcl:ICR mice (10 animals per group) were employed. Dorsal cutaneous incisions were made under anesthesia at least one hour before the experiments. Substance-P (SP) was administered in an amount of 10 ng/5 μl/mouse at the subarachnoid space of the spinal cord. Then the test animals started to bite themselves at the abdomen alternately. The number of bitings was counted for one minute immediately after the SP administration. The values thus obtained were made indexes of pseudo pain reflexes caused by SP.
Test drugs were dissolved in a solution (Tween 80:ethanol:physiological saline=20:10:70) together with a given amount of SP. The solutions thus prepared were administered to test animals. In the case of oral administration, 5% suspension of gum arabica was employed, which was administered at 30 minutes before the SP administration.
The inhibition rate (%) of each sample was calculated by the following formula. Inhibition rate (%)=(number of counts in the control group-numberof counts in each sample)/(number of counts in the control group)×100.
And, 50% inhibition dose (ID50) was calculated from the primary linear regression line of dose-dependent curve.

Data set [2] deals with Writhing. The experiment in a line: Acetic acid-writhing method. The format is in vivo, Slc:ICR mice. The conditions noted are these: mice, 0.6% acetic acid i.p. 30 min later, writhing during 20 minutes. As for the experimental part:
Acetic acid-writhing method
Male Slc:ICR mice of four-week old (10 animals per group) were employed. Test compounds were orally administered. Thirty minutes later, purified water containing 0.6% acetic acid was injected intraperitoneally (0.1 ml/10 g body weight). Writhing shown by the test animals during 20 minutes was observed on individual animals.
On each test animal, the inhibition rate against the average response times in the control group was calculated. The test compound was administered as a 5% suspension of gum arabica.
On the technique in general: An intraperitoneal irritant provokes the stretching counted in writhing tests.

Data set [3] in a line: acute toxicity (LD50), oral, rats. The settings on record: rat, in vivo, orally administered to rats. From the text: Therefore, the compounds of this invention and their salts can be used for prophylaxis or therapy of diseases including pain due to bone diseases (arthritis, rheumatic fever, osteoporosis), pain induced by cancer or the like, lumbago, postoperative pain, neuralgia, pain induced by inflammatory diseases, pain caused by tooth extraction, tooth-ache and pain due to burn trauma, as well as neurosis (e.g. anxiety neurosis, depression, mental disorder), somnipathy or the like. Since the compounds of this invention act on a neurotransmitting system such as dopamine or norepinephrine, they can be used also as prophylactic and therapeutic drugs for circulatory diseases (e.g. hypertension).

Broadly, the LD50 is the dose expected to kill half of the subjects tested. A lower LD50 goes with a more toxic substance.

As to `CCN1CCO[C@]2(C)c3cccc4[nH]cc(c34)C[C@@H]12` (relative stereo) [Example 8, Trans-4,6,6a,8,9,10a-hexahydro-7-ethyl-10a-methyl-7H-indolo[3,4-gh][1,4]benzoxazine], the “Inhibition rate (%), antagonistic action to Substance-P (biting response)” value in data set [1] is on record as 65%. Besides, in data set [2] (12.5 mg/kg,p.o.), the “Inhibition rate (%), analgesic action (writhing)” value came out at 61%.
Regarding `C=C[C@]12OCCN(CC)[C@@H]1Cc1c[nH]c3cccc2c13` (relative stereo) [Example 1, Trans-4,6,6a,8,9,10a-hexahydro-7-ethyl-10a-vinyl-7H-indolo[3,4-gh][1.4]benzoxazine], the “Inhibition rate (%), antagonistic action to Substance-P (biting response)” value in data set [1] came out at 80%.
`CCN1CCO[C@]2(C)c3c(OC)ccc4[nH]cc(c34)C[C@@H]12` (relative stereo) [Example 2, Trans-4,6,6a,8,9,10a-hexahydro-7-ethyl-1-methoxy-10a-methyl-7H-indole[3,4-gh][1.4]benzoxazine]: the “Inhibition rate (%), antagonistic action to Substance-P (biting response)” value in data set [1] turned out to be 100%. Besides, in data set [2] (25 mg/kg,p.o.), the “Inhibition rate (%), analgesic action (writhing)” value was 99%. The molecule further had an LD50 in data set [3] of at least 100 mg/kg.
